Measured values reported in patent US6825225B2, “Bicyclic isoxazolinones as antibacterial agents” (Pharmacia & Upjohn Company, priority 2000, dated 2004).
Values after ≈ are worked out from the molar mass of the structure shown.

System: Methicillin-susceptible S. aureus UC®9213
Assay: Minimum inhibitory concentration (MIC) by agar dilution
Format: cell-based
Settings: Staphylococcus aureus, UC9213, lowest concentration that inhibits visible growth, read-out: Antibacterial Activity, Minimum Inhibitory Concentration, S.A.
Excerpt: The isoxazolinone antibacterial agents of this invention have useful activity against a variety of organisms. The in vitro activity of compounds of this invention can be assessed by standard testing procedures such as the determination of minimum inhibitory concentration (MIC) by agar dilution as described in “Approved Standard. Methods for Dilution Anti microbial Susceptibility Tests for Bacteria That Grow Aerobically”, 3rd. ed., published 1993 by the National Committee for Clinical Laboratory Standards, Villanova, Pa., USA. S.A is Methicillin-susceptible S. aureus UC®9213. Minimum inhibitory concentration refers to lowest concentration of drug (μg/mL) that inhibits visible growth of the organism.

Structure (SMILES) | MIC
CC(=O)NCn1cc(-c2ccc3c(c2)CC(C)N3C=O)c(=O)o1 (centres unmarked) [Example 1, N-{[4-(N-formyl-2-methylindolinyl)-5-oxo-isoxazol-2-yl]methyl}acetamide] | 2 µg/mL (≈ 6.34 µM)
CN[C@H](CC(C)C)C(=O)N[C@H]1C(=O)N[C@@H](CC(N)=O)C(=O)N[C@H]2C(=O)N[C@H]3C(=O)N[C@H](C(=O)N[C@H](C(=O)O)c4cc(O)cc(O)c4-c4cc3ccc4O)[C@H](O)c3ccc(c(Cl)c3)Oc3cc2cc(c3O[C@@H]2O[C@H](CO)[C@@H](O)[C@H](O)[C@H]2O[C@H]2C[C@](C)(N)[C@H](O)[C@H](C)O2)Oc2ccc(cc2Cl)[C@H]1O [vancomycin] | 1 µg/mL (≈ 0.69 µM)
